# Source: patent US10829520B2, “Beta-hairpin peptidomimetics” (POLYPHOR AG, priority 2015, dated 2020)
# Where a SMILES comes first, the peptide text is derived from it. Bridges are numbered along the chain shown (N, C = ends). Roman numbers before positions name the chains, in order. [ ]: non-standard residue; d: D form. Tle = CC(C)(C)[C@H](N)C(=O)O; dNle = CCCC[C@@H](N)C(=O)O; dDab = NCC[C@@H](N)C(=O)O; Nle = CCCC[C@H](N)C(=O)O; Orn = NCCC[C@H](N)C(=O)O; Dab = NCC[C@H](N)C(=O)O; dAze = O=C(O)[C@H]1CCN1
# Columns and labels:
# Format in all cases: cell-based
# [1] = test system: human red blood cells (hRBC); test: Hemolysis of human red blood cells; conditions: red cells of human, 1 h
# In short: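 Hemolysis was read as supernatant absorbance at 540 nm and expressed as a percentage of Triton X-100 (2.5%) lysis. Washed human red cells (20% v/v) had been exposed to each peptide at 100 μg/mL for 1 h at 37° C.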
# [2] = test system: Klebsiella pneumoniae 968733; conditions: 968733
# Escherichia coli 926415 = conditions: 926415
# [3] = test system: Klebsiella pneumoniae SSI #3010; conditions: SSI #3010
# In short: (§1)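 CLSI broth microdilution in cation-adjusted Mueller-Hinton II broth with 0.002% Polysorbate 80, inoculum appr. 10^6 CFU/mL, peptides in serial two-fold dilutions. MIC (μg/mL) is the lowest concentration with no visible growth after 18-20 hours at 35° C.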
# [4] = test system: Acinetobacter baumannii DSM 30008; conditions: DSM 30008
# In short: as §1
# [5] = test system: Pseudomonas aeruginosa ATCC 27853; conditions: ATCC 27853
# In short: as §1
# [6] = test system: Escherichia coli ATCC 25922; conditions: ATCC 25922
# In short: as §1
# [7] = test system: Acinetobacter baumannii 872842; conditions: 872842
Structure (SMILES),Hemolysis at 100 μg/mL ([1]; 100 μg/mL),Klebsiella pneumoniae 968733 MIC [2],Escherichia coli 926415 MIC (Escherichia coli 926415),Klebsiella pneumoniae SSI #3010 MIC [3],Acinetobacter baumannii DSM 30008 MIC [4],Pseudomonas aeruginosa ATCC 27853 MIC [5],Escherichia coli ATCC 25922 MIC [6],Acinetobacter baumannii 872842 MIC [7],Hemolysis at 100 μg/mL [1]; 100
"CC(C)C[C@@H]1NC(=O)[C@@H](Cc2ccccc2)NC(=O)[C@H](CCN)NC(=O)[C@@H](NC(=O)[C@H](CCN)NC(=O)[C@H](CCCN)NC(=O)[C@@H]2CSSC[C@H](NC(=O)[C@@H](N)Cc3c[nH]c4ccccc34)C(=O)N[C@@H](C(C)(C)C)C(=O)N[C@H]3CC(=O)NCC[C@H](NC(=O)[C@H](C(C)C)NC(=O)[C@@H]4CCCN4C(=O)[C@H]4CCN4C(=O)[C@H]([C@@H](C)O)NC3=O)C(=O)N[C@@H](Cc3ccc(O)cc3)C(=O)N2)CCNC(=O)[C@H]([C@@H](C)O)NC(=O)[C@H](CCN)NC(=O)[C@H](CCN)NC1=O [Ex. 191] (H-WC[Tle]DT[dAze]PV[Dab]YC[Orn][Dab][Dab][Dab][dF]L[Dab][Dab]T; disulfide 2-11; lactam 4-9, 14-C)",6%,0.5 µg/mL,0.125 µg/mL,0.25 µg/mL,0.5 µg/mL,1 µg/mL,0.5 µg/mL,0.25 µg/mL,–
"CCCC[C@@H]1NC(=O)[C@@H]2CCCN2C(=O)[C@H]2CCCN2C(=O)[C@H](CO)NC(=O)[C@H](C)NC(=O)[C@H](C(C)(C)C)NC(=O)[C@H](CCN)NC(=O)[C@H](Cc2c[nH]c3ccccc23)NC(=O)[C@@H](N)CCC(=O)NCC[C@@H](C(N)=O)NC(=O)[C@H](CCC(=O)N[C@H](CCN)C(=O)N[C@H]2CCNC(=O)[C@H]([C@@H](C)O)NC(=O)[C@H](CCN)NC(=O)[C@H](CCN)NC(=O)[C@H](CC(C)C)NC(=O)[C@@H](Cc3ccccc3)NC(=O)[C@H](CCN)NC2=O)NC(=O)[C@H](CCN)NC(=O)[C@H](Cc2ccc(O)cc2)NC(=O)[C@H](CO)NC1=O [Ex. 193] (I: H-EW[Dab][Tle]AS[dP]P[Nle]SY[Dab]E[Dab]-NH2 / II: [dDab][Dab][Dab][dF]L[Dab][Dab]T; lactam I:1-I:14, II:2-II:C; amide I:13-II:N)",–,1 µg/mL,0.5 µg/mL,0.5 µg/mL,1 µg/mL,2 µg/mL,0.5 µg/mL,1 µg/mL,<1%
CCCC[C@@H]1NC(=O)[C@@H]2CCCN2C(=O)[C@H]2CCCN2C(=O)[C@H](CO)NC(=O)[C@H](C)NC(=O)[C@H](C(C)(C)C)NC(=O)[C@H](CCN)NC(=O)[C@H](Cc2c[nH]c3ccccc23)NC(=O)[C@@H](NC(C)=O)CSSC[C@@H](C(N)=O)NC(=O)[C@H](CCC(=O)N[C@H](CCN)C(=O)N[C@H]2CCNC(=O)[C@H]([C@@H](C)O)NC(=O)[C@H](CCN)NC(=O)[C@H](CCN)NC(=O)[C@H](CC(C)C)NC(=O)[C@@H](Cc3ccccc3)NC(=O)[C@H](CCN)NC2=O)NC(=O)[C@H](CCN)NC(=O)[C@H](Cc2ccc(O)cc2)NC(=O)[C@H](CO)NC1=O [Ex. 194] (I: Ac-CW[Dab][Tle]AS[dP]P[Nle]SY[Dab]EC-NH2 / II: [dDab][Dab][Dab][dF]L[Dab][Dab]T; disulfide I:1-I:14; amide I:13-II:N; lactam II:2-II:C),<1%,2 µg/mL,1 µg/mL,0.5 µg/mL,0.5 µg/mL,2 µg/mL,0.25 µg/mL,2 µg/mL,–
"CCCC[C@@H]1NC(=O)[C@@H]2CCCN2C(=O)[C@H]2CCCN2C(=O)[C@H](CO)NC(=O)[C@H](C)NC(=O)[C@H](C(C)(C)C)NC(=O)[C@H](CCN)NC(=O)[C@H](Cc2c[nH]c3ccccc23)NC(=O)[C@@H](NC(C)=O)CCNC(=O)CC[C@@H](C(=O)N[C@H](CCN)C(=O)N[C@H]2CCNC(=O)[C@H]([C@@H](C)O)NC(=O)[C@H](CCN)NC(=O)[C@H](CCN)NC(=O)[C@H](CC(C)C)NC(=O)[C@@H](CC(C)C)NC(=O)[C@H](CCN)NC2=O)NC(=O)[C@H](CCCN)NC(=O)[C@H](CCN)NC(=O)[C@H](Cc2ccc(O)cc2)NC(=O)[C@H](CO)NC1=O [Ex. 196] (Ac-[Dab]W[Dab][Tle]AS[dP]P[Nle]SY[Dab][Orn]E[dDab][Dab][Dab][dL]L[Dab][Dab]T; lactam 1-14, 16-C)",–,0.5 µg/mL,0.125 µg/mL,0.25 µg/mL,0.25 µg/mL,1 µg/mL,0.125 µg/mL,0.5 µg/mL,<1%
"CCCC[C@@H]1NC(=O)[C@@H]2CCCN2C(=O)[C@H]2CCCN2C(=O)[C@H](CO)NC(=O)[C@H](C)NC(=O)[C@H](C(C)(C)C)NC(=O)[C@H](CCN)NC(=O)[C@H](Cc2c[nH]c3ccccc23)NC(=O)[C@@H](NC(C)=O)CCNC(=O)CC[C@@H](C(=O)N[C@H](CCN)C(=O)N[C@H]2CCNC(=O)[C@H]([C@@H](C)O)NC(=O)[C@H](CCN)NC(=O)[C@H](CCN)NC(=O)[C@H](CC(C)C)NC(=O)[C@@H](Cc3ccccc3)NC(=O)[C@H](CCN)NC2=O)NC(=O)[C@H](CCCN)NC(=O)[C@H](CCN)NC(=O)[C@H](Cc2ccc(O)cc2)NC(=O)[C@H](CO)NC1=O [Ex. 197] (Ac-[Dab]W[Dab][Tle]AS[dP]P[Nle]SY[Dab][Orn]E[dDab][Dab][Dab][dF]L[Dab][Dab]T; lactam 1-14, 16-C)",–,2 µg/mL,0.25 µg/mL,0.25 µg/mL,0.5 µg/mL,2 µg/mL,0.0625 µg/mL,4 µg/mL,2%
"CCCC[C@@H]1NC(=O)[C@@H]2CCCN2C(=O)[C@H]2CCCN2C(=O)[C@H](CO)NC(=O)[C@H](C)NC(=O)[C@H](C(C)(C)C)NC(=O)[C@H](CCN)NC(=O)[C@H](Cc2c[nH]c3ccccc23)NC(=O)[C@@H](N)CCC(=O)NCC[C@@H](C(=O)N[C@H](CCN)C(=O)N[C@H]2CCNC(=O)[C@H]([C@@H](C)O)NC(=O)[C@H](CCN)NC(=O)[C@H](CCN)NC(=O)[C@H](CC(C)C)NC(=O)[C@@H](Cc3ccccc3)NC(=O)[C@H](CCN)NC2=O)NC(=O)[C@H](CCCN)NC(=O)[C@H](CCN)NC(=O)[C@H](Cc2ccc(O)cc2)NC(=O)[C@H](CO)NC1=O [Ex. 198] (H-EW[Dab][Tle]AS[dP]P[Nle]SY[Dab][Orn][Dab][dDab][Dab][Dab][dF]L[Dab][Dab]T; lactam 1-14, 16-C)",–,1 µg/mL,0.5 µg/mL,0.125 µg/mL,0.25 µg/mL,0.5 µg/mL,0.0625 µg/mL,1 µg/mL,1%
CCCC[C@@H]1NC(=O)[C@@H]2CCCN2C(=O)[C@H]2CCCN2C(=O)[C@H](CO)NC(=O)[C@H](CO)NC(=O)[C@H](C(C)(C)C)NC(=O)[C@H](CCN)NC(=O)[C@H](Cc2c[nH]c3ccccc23)NC(=O)[C@@H](N)CSSC[C@@H](C(=O)N[C@@H](C)C(=O)N[C@H](CCN)C(=O)N[C@H]2CCNC(=O)[C@H]([C@@H](C)O)NC(=O)[C@H](CCN)NC(=O)[C@H](CCN)NC(=O)[C@H](CC(C)C)NC(=O)[C@@H](Cc3ccccc3)NC(=O)[C@H](CCN)NC2=O)NC(=O)[C@H](CCCN)NC(=O)[C@H](CCN)NC(=O)[C@H](Cc2ccc(O)cc2)NC(=O)[C@H](CO)NC1=O [Ex. 199] (H-CW[Dab][Tle]SS[dP]P[Nle]SY[Dab][Orn]CA[dDab][Dab][Dab][dF]L[Dab][Dab]T; disulfide 1-14; lactam 17-C),<1%,4 µg/mL,0.5 µg/mL,0.5 µg/mL,2 µg/mL,2 µg/mL,0.25 µg/mL,0.5 µg/mL,–
CCCC[C@@H]1NC(=O)[C@@H]2CCCN2C(=O)[C@H]2CCCN2C(=O)[C@H](CO)NC(=O)[C@H](CO)NC(=O)[C@H](C(C)(C)C)NC(=O)[C@H](CCN)NC(=O)[C@H](Cc2c[nH]c3ccccc23)NC(=O)[C@@H](N)CSSC[C@@H](C(=O)N[C@H](CCCC)C(=O)N[C@H](CCN)C(=O)N[C@H]2CCNC(=O)[C@H]([C@@H](C)O)NC(=O)[C@H](CCN)NC(=O)[C@H](CCN)NC(=O)[C@H](CC(C)C)NC(=O)[C@@H](Cc3ccccc3)NC(=O)[C@H](CCN)NC2=O)NC(=O)[C@H](CCCN)NC(=O)[C@H](CCN)NC(=O)[C@H](Cc2ccc(O)cc2)NC(=O)[C@H](CO)NC1=O [Ex. 200] (H-CW[Dab][Tle]SS[dP]P[Nle]SY[Dab][Orn]C[dNle][dDab][Dab][Dab][dF]L[Dab][Dab]T; disulfide 1-14; lactam 17-C),<1%,1 µg/mL,0.5 µg/mL,0.25 µg/mL,0.5 µg/mL,2 µg/mL,0.125 µg/mL,1 µg/mL,–
